The text below walks through data of ChEMBL document CHEMBL5696441 (Nat Chem Biol, 2011).

The structures appear in SMILES notation.

In assay [1] the target is Ribosomal protein S6 kinase alpha-2 (Homo sapiens) (UniProt Q15349). Put plainly: Inhibition of N-terminal kinase domain RPS6KA2 (unknown origin) assessed as remaining activity at 1 uM by Kinome scan method relative to control.
The target of assay [2] is Proto-oncogene tyrosine-protein kinase ROS (Homo sapiens) (UniProt P08922). Briefly: Inhibition of human ROS assessed as residual activity at 1 uM using poly(Ala,Glu,Lys,Tyr)6:2:5:1 as substrate in presence of 33P-ATP by ProQinase assay relative to control.
Chain of Proto-oncogene tyrosine-protein kinase ROS (Homo sapiens) (P08922 whole entry): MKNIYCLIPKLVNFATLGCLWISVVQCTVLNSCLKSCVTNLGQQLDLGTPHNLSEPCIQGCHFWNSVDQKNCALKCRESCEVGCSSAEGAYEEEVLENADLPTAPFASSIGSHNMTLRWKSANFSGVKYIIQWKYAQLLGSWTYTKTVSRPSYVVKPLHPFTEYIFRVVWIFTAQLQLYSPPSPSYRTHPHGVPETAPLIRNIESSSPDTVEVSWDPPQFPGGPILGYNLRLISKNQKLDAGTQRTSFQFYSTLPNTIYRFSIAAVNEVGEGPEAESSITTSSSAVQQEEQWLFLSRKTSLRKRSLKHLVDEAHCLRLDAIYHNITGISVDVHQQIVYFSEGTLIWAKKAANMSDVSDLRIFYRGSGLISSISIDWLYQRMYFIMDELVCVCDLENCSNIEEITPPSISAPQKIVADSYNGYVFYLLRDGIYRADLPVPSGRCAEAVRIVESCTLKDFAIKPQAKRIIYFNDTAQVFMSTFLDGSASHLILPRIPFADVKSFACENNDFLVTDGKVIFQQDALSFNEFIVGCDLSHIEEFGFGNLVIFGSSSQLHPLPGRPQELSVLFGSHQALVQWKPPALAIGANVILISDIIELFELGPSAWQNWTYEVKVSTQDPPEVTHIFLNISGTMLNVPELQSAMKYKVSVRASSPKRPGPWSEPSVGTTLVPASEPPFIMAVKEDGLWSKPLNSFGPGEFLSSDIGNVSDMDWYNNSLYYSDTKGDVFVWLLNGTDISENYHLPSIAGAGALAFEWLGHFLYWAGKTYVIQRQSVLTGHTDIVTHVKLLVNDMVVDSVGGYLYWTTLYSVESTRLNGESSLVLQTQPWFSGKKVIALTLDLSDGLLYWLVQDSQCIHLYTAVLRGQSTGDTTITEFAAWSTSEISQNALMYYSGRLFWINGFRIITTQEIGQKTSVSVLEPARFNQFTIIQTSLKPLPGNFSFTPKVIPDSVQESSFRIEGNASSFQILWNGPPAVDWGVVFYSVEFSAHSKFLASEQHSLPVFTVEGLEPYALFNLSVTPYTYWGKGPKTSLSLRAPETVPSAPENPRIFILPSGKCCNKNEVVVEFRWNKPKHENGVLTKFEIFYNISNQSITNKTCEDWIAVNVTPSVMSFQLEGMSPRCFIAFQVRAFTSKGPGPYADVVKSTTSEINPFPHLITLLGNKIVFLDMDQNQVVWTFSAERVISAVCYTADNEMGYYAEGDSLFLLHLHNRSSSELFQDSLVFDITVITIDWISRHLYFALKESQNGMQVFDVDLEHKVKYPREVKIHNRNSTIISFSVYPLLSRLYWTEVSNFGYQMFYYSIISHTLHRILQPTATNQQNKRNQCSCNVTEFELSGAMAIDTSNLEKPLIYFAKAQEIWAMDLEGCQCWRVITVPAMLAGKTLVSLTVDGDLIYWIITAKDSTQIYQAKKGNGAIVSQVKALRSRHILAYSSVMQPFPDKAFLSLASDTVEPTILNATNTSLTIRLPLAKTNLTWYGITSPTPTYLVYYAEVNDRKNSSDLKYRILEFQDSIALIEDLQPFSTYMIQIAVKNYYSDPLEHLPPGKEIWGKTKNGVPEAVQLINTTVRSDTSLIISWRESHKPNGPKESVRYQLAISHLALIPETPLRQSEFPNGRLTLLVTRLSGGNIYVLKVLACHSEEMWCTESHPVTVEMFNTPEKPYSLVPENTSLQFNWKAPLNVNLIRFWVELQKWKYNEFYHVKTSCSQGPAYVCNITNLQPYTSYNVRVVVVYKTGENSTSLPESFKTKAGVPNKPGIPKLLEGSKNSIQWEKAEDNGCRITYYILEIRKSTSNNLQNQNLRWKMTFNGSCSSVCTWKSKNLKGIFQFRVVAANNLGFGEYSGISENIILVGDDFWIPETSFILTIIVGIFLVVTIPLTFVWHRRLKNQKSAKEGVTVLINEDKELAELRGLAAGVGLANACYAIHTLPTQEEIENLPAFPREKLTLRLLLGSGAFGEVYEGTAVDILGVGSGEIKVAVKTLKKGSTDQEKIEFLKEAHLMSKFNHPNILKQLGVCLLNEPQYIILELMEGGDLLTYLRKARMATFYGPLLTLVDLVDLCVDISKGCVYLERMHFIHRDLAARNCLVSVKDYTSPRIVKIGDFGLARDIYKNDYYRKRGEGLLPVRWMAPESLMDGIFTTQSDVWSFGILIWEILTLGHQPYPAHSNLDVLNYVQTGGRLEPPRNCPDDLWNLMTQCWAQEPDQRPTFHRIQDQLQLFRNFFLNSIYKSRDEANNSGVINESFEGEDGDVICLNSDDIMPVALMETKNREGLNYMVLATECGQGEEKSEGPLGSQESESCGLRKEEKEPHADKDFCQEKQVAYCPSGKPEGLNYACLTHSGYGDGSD

Chain of Ribosomal protein S6 kinase alpha-2 (Homo sapiens) (Q15349 whole entry, the tested form may be a part): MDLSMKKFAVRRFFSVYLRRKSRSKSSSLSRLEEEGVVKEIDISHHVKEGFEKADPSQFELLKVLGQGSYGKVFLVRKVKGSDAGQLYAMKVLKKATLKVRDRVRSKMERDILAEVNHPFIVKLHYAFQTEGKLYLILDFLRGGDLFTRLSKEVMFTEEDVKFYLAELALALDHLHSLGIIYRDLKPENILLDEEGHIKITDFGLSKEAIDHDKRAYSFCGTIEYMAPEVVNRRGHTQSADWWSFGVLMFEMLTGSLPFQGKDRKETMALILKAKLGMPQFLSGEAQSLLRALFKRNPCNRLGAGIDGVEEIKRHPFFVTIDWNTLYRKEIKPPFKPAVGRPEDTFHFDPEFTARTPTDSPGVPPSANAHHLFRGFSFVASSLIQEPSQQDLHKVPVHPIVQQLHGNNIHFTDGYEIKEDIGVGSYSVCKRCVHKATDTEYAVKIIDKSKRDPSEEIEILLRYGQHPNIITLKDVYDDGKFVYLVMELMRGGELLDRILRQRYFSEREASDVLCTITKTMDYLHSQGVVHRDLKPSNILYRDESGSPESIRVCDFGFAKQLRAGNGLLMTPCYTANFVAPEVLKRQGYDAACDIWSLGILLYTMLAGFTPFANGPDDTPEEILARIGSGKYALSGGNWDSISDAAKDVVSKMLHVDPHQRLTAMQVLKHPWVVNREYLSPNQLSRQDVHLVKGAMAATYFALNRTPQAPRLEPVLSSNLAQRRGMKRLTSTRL

Turning to `O=C1c2ccc(Nc3ccc(F)cc3F)cc2CCc2ccc(OC[C@H](O)CO)cc21` [Skepinone-L], the values for the Activity in assay [1] and in assay [2] were 100% and 102%, respectively.
